# ChEMBL document CHEMBL4052588, “Design of a Biased Potent Small Molecule Inhibitor of the Bromodomain and PHD Finger-Containing (BRPF) Proteins Suitable for Cellular and in Vivo Studies” (J Med Chem, 2017)
# What was measured:
# [1] = biological target: T1, Bromodomain and PHD finger-containing protein 3 (Homo sapiens) (UniProt Q9ULD4)
# T1 sequence (whole entry): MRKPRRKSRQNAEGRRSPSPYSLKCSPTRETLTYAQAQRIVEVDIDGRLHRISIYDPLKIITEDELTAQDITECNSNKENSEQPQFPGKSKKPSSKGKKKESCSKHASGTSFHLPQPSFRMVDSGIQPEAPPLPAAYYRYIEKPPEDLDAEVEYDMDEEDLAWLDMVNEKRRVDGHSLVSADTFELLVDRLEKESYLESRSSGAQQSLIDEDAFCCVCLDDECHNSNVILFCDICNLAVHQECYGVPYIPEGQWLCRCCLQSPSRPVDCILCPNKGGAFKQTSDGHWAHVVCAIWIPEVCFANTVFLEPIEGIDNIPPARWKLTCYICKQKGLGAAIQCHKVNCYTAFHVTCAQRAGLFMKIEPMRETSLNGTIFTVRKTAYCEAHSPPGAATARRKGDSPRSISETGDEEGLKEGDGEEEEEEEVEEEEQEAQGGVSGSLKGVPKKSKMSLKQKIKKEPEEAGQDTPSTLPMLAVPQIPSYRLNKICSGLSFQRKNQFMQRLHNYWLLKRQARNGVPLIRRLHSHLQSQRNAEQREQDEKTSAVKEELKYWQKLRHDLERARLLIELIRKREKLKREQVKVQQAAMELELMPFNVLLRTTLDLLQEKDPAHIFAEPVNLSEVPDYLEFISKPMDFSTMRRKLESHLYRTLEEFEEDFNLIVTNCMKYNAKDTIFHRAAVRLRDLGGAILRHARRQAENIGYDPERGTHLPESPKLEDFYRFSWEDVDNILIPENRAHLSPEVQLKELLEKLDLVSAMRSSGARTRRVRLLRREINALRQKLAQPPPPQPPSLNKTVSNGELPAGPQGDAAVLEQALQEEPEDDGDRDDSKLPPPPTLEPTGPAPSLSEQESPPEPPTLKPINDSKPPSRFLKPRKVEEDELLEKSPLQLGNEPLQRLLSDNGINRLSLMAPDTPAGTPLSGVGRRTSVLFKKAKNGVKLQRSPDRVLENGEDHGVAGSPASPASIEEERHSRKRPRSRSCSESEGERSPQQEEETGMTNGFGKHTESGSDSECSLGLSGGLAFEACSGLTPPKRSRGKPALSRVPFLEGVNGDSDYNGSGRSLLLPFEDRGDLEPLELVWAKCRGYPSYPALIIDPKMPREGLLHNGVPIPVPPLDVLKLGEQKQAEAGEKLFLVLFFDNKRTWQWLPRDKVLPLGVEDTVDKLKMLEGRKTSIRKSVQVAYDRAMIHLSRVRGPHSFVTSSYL
# [2] = biological target: T2, Bromodomain-containing protein 9 (Homo sapiens) (UniProt Q9H8M2)
# T2 sequence (whole entry): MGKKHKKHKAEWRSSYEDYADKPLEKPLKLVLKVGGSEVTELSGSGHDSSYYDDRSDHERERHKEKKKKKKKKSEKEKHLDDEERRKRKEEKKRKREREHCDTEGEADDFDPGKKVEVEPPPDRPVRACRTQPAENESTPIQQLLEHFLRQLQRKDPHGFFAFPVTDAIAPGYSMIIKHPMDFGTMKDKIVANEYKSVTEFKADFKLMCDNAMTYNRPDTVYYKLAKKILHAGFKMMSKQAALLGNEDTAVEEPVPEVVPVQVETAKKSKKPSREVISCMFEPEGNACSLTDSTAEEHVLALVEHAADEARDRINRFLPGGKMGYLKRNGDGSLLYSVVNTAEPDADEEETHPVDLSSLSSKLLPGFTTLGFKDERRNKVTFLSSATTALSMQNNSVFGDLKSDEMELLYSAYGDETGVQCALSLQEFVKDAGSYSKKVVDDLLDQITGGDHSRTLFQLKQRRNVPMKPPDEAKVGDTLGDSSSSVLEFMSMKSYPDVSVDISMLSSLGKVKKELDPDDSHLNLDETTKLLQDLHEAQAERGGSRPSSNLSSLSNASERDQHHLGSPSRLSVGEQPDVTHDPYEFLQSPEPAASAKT
# [3] = biological target: Bromodomain-containing protein 7 (Homo sapiens, UniProt Q9NPI1); test: Inhibition of human BRD7 expressed in Escherichia coli BL21 after 1 hr by BROMOscan assay
# Chain of Bromodomain-containing protein 7 (Q9NPI1 whole entry, the tested form may be a part): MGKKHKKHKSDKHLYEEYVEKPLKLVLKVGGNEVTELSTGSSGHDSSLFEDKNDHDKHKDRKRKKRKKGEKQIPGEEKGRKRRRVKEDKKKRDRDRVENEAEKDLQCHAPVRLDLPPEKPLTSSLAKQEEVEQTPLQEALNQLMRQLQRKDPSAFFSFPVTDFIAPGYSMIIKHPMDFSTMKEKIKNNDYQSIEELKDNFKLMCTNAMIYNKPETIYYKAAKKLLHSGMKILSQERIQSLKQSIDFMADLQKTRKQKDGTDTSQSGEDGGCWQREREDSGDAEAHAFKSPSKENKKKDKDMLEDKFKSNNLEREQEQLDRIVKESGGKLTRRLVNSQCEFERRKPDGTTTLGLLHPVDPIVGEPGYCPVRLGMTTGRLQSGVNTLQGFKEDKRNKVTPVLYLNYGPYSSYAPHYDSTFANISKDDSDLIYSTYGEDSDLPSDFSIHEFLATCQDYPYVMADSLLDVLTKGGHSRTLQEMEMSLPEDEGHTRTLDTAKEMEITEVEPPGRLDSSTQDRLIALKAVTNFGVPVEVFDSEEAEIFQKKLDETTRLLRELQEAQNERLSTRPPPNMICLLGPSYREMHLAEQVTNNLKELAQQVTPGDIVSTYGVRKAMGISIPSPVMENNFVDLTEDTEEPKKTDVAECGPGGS
# [4] = biological target: ATPase family AAA domain-containing protein 2B (Homo sapiens, UniProt Q9ULI0); test: Inhibition of human ATAD2B expressed in Escherichia coli BL21 after 1 hr by BROMOscan assay
# Chain of ATPase family AAA domain-containing protein 2B (Q9ULI0 whole entry, the tested form may be a part): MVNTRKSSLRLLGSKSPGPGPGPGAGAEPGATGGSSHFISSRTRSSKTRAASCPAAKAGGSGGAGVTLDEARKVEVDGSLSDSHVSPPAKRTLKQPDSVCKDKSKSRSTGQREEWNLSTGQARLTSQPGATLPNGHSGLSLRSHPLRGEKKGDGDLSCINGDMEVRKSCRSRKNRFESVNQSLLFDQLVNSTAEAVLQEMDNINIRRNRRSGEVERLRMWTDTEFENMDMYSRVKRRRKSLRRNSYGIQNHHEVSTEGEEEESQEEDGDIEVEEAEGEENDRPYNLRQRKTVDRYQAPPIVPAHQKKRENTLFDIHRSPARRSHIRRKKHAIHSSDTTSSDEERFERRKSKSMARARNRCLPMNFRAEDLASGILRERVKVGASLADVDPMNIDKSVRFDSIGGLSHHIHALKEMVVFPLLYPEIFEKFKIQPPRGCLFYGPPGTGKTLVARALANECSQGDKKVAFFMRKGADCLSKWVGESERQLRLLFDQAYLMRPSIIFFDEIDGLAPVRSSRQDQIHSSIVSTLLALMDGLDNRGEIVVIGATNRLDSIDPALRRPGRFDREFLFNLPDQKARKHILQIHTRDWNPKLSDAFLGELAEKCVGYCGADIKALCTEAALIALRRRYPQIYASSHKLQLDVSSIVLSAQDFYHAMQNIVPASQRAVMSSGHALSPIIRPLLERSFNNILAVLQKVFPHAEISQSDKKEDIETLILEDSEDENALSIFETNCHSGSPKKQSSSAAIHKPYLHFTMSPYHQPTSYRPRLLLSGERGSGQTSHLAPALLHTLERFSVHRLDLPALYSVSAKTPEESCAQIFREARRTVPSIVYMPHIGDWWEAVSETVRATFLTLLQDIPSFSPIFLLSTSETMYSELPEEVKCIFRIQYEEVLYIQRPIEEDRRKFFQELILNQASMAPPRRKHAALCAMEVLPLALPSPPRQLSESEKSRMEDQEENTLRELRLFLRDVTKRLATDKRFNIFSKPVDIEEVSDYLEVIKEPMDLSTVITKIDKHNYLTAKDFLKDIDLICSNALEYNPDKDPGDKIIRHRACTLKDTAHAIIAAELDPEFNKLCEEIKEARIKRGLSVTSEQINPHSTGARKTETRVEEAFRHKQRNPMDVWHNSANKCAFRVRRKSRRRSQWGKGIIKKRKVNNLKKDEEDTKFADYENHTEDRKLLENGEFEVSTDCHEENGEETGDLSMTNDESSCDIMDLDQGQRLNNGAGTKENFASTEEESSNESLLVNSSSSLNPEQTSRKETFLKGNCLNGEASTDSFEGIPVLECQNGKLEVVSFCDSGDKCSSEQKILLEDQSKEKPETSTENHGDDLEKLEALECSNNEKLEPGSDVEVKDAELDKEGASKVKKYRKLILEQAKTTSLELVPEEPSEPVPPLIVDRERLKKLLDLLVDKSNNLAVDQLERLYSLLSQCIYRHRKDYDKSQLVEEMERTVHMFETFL
ΔTm [1],ΔTm [2],IC50 [3],IC50 [4],SMILES
2.4 °C,2.2 °C,,,Cc1cc(C#N)ccc1S(=O)(=O)Nc1ccc2c(ccc(=O)n2C)c1
4.5 °C,3.5 °C,0.082 µM,> 100 µM,Cc1cc2cc(NS(=O)(=O)c3ccc(C#N)cc3)ccc2n(C)c1=O
,,> 100 µM,> 100 µM,CCc1cc2cc(NS(=O)(=O)c3ccc(C#N)cc3)ccc2n(CC)c1=O
